Assay results as given in US8399459B2, “1,4 oxazines as BACE1 and/or BACE2 inhibitors” (Hoffmann-La Roche Inc., priority 2011, dated 2013).
Structures can show the parent of a compound that is named as a salt.

target: T1, BACE1 (Homo sapiens, UniProt P56817); assay: Cellular Aβ-lowering assay (Aβ40 ELISA, HEK293 cells expressing human APP695); format: cell-based; details: HEK293 cells stably expressing human APP695; Aβ40 in supernatant after 18-20 hrs
T1 construct: Human HEK293 cells which are stably transfected with a vector expressing a cDNA of the human APP wt gene (APP695); endogenous in cells; host or cells: HEK293 (human), stably transfected with human APP695 wt only
T1 sequence (P56817 46-501): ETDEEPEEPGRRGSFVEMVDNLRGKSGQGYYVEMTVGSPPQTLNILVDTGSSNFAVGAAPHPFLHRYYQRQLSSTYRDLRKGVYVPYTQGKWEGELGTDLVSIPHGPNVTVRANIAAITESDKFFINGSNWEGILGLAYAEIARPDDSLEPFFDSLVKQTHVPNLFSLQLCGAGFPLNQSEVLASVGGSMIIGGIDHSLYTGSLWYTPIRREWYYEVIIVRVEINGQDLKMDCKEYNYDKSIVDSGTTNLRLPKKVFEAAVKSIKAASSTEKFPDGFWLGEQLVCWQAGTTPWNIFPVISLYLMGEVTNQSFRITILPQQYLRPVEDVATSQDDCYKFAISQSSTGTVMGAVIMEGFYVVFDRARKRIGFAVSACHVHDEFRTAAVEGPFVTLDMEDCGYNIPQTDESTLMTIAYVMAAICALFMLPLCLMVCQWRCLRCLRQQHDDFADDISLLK
Description: Cellular Aβ-Lowering Assay:
Human HEK293 cells which are stably transfected with a vector expressing a cDNA of the human APP wt gene (APP695) were used to assess the potency of the compounds in a cellular assay. The cells were seeded in 96-well microtiter plates in cell culture medium (Iscove, plus 10% (v/v) fetal bovine serum, glutamine, penicillin/streptomycin) to about 80% confluence and the compounds were added at a 10× concentration in 1/10 volume of medium without FCS containing 8% DMSO (final concentration of DMSO was kept at 0.8% v/v). After 18-20 hrs incubation at 37° C. and 5% CO2 in a humidified incubator the culture supernatant was harvested for the determination of Aβ40 concentrations. 96well ELISA plates (e.g., Nunc MaxiSorb) were coated with monoclonal antibody which specifically recognize the C-terminal end of Aβ40 (Brockhaus et al., NeuroReport 9, 1481-1486; 1998). After blocking of non-specific binding sites with e.g. 1% BSA and washing, the culture supernatants were added in suitable dilutions together with a horseradish peroxidase-coupled Aβ detection antibody (e.g., antibody 4G8, Senetek, Maryland Heights, Mo.) and incubated for 5 to 7 hrs. Subsequently the wells of the microtiter plate were washed extensively with Tris-buffered saline containing 0.05% Tween 20 and the assay was developed with tetramethylbenzidine/H2O2 in citric acid buffer. After stopping the reaction with one volume 1 N H2SO4 the reaction was measured in an ELISA reader at 450 nm wavelength. The concentrations of Aβ in the culture supernatants were calculated from a standard curve obtained with known amounts of pure Aβ peptide.

Compound | IC50 [nM]
CC1(c2cccc(-c3cc(Cl)cc(C(F)(F)F)c3)c2)COCC(N)=N1 (centres unmarked) [Example 11, 5-(5′-Chloro-3′-trifluoromethyl-biphenyl-3-yl)-5-methyl-5,6-dihydro-2H-[1,4]oxazin-3-ylamine] | 1840
CC1(c2cccc(-c3cc4ccc(Cl)cc4[nH]3)c2)COCC(N)=N1 (centres unmarked) [Example 24, 5-[3-(6-Chloro-1H-indol-2-yl)-phenyl]-5-methyl-5,6-dihydro-2H-[1,4]oxazin-3-ylamine] | 12700
Cn1ncc2c(-c3cccc(C4(C)COCC(N)=N4)c3)cccc21 (centres unmarked) [Example 23, 5-Methyl-5-[3-(1-methyl-1H-indazol-4-yl)-phenyl]-5,6-dihydro-2H-[1,4]oxazin-3-ylamine] | 3660
Cc1cc(C2(c3cccc(-c4cccnc4)c3)COCC(N)=N2)ccc1OC(F)F (centres unmarked) [Example 44, 5-(4-Difluoromethoxy-3-methyl-phenyl)-5-(3-pyridin-3-yl-phenyl)-5,6-dihydro-2H-[1,4]oxazin-3-ylamine] | 60
CC1(c2cccc(-c3cc(Cl)cc(C(=O)N4CCOCC4)c3)c2)COCC(N)=N1 (centres unmarked) [Example 13, [3′-(5-Amino-3-methyl-3,6-dihydro-2H-[1,4]oxazin-3-yl)-5-chloro-biphenyl-3-yl]-morpholin-4-yl-methanone] | 2390
CC1(c2cccc(-c3ccc4c(c3)OC(F)(F)O4)c2)COCC(N)=N1 (centres unmarked) [Example 21, 5-[3-(2,2-Difluoro-benzo[1,3]dioxol-5-yl)-phenyl]-5-methyl-5,6-dihydro-2H-[1,4]oxazin-3-ylamine] | 4550
CC1(c2cccc(-c3cc(Cl)cc(Cl)c3Cl)c2)COCC(N)=N1 (centres unmarked) [Example 6, 5-Methyl-5-(2′,3′,5′-trichloro-biphenyl-3-yl)-5,6-dihydro-2H-[1,4]oxazin-3-ylamine] | 4060
CC1(c2cccc(-c3ccc(F)nc3F)c2)COCC(N)=N1 (centres unmarked) [Example 40, 5-(3-(2,6-difluoropyridin-3-yl)phenyl)-5-methyl-5,6-dihydro-2H-1,4-oxazin-3-amine] | 530
CC1(c2cccc(-c3nc4cc(Cl)ccc4o3)c2)COCC(N)=N1 (centres unmarked) [Example 53, 5-[3-(5-Chloro-benzooxazol-2-yl)-phenyl]-5-methyl-5,6-dihydro-2H-[1,4]oxazin-3-ylamine] | 1490
CC1(c2cccc(-c3cccnc3F)c2)COCC(N)=N1 (centres unmarked) [Example 39, 5-(3-(2-fluoropyridin-3-yl)phenyl)-5-methyl-5,6-dihydro-2H-1,4-oxazin-3-amine] | 280
Cc1cc(Cl)cc(-c2cccc(C3(C)COCC(N)=N3)c2)c1F (centres unmarked) [Example 10, 5-(5′-Chloro-2′-fluoro-3′-methyl-biphenyl-3-yl)-5-methyl-5,6-dihydro-2H-[1,4]oxazin-3-ylamine] | 1500
CC1(c2cccc(-c3nc4cc(Cl)ccc4[nH]3)c2)COCC(N)=N1 (centres unmarked) [Example 50, 5-[3-(5-Chloro-1H-benzoimidazol-2-yl)-phenyl]-5-methyl-5,6-dihydro-2H-[1,4]oxazin-3-ylamine] | 1280
NC1=NC(c2ccc(OC(F)F)nc2)(c2cccc(-c3cncc(Cl)c3)c2)COC1 (centres unmarked) [Example 47, 5-[3-(5-Chloro-pyridin-3-yl)-phenyl]-5-(6-difluoromethoxy-pyridin-3-yl)-5,6-dihydro-2H-[1,4]oxazin-3-ylamine] | 110
NC1=NC(c2cc(-c3cncnc3)ccc2F)(C(F)F)COC1 (centres unmarked) [Example 51, 5-Difluoromethyl-5-(2-fluoro-5-pyrimidin-5-yl-phenyl)-5,6-dihydro-2H-[1,4]oxazin-3-ylamine] | 770
COc1cncc(-c2cccc(C3(c4ccc(OC(F)F)nc4)COCC(N)=N3)c2)c1 (centres unmarked) [Example 48, 5-(6-Difluoromethoxy-pyridin-3-yl)-5-[3-(5-methoxy-pyridin-3-yl)-phenyl]-5,6-dihydro-2H-[1,4]oxazin-3-ylamine] | 30
CC1(c2cccc(C#Cc3ccc(Cl)cn3)c2)COCC(N)=N1 (centres unmarked) [Example 43, 5-[3-(5-Chloro-pyridin-2-ylethynyl)-phenyl]-5-methyl-5,6-dihydro-2H-[1,4]oxazin-3-ylamine] | 300
COc1cc(Cl)cc(-c2cccc(C3(C)COCC(N)=N3)c2)c1 (centres unmarked) [Example 8, 5-(3′-Chloro-5′-methoxy-biphenyl-3-yl)-5-methyl-5,6-dihydro-2H-[1,4]oxazin-3-ylamine] | 1490
CC1(c2cccc(C#Cc3ccccc3)c2)COCC(N)=N1 (centres unmarked) [Example 54, 5-Methyl-5-(3-phenylethynyl-phenyl)-5,6-dihydro-2H-[1,4]oxazin-3-ylamine] | 1470
NC1=NC(c2cc(-c3cncc(Cl)c3)ccc2F)(C(F)F)COC1 (centres unmarked) [Example 52, 5-[5-(5-Chloro-pyridin-3-yl)-2-fluoro-phenyl]-5-difluoromethyl-5,6-dihydro-2H-[1,4]oxazin-3-ylamine] | 280
CC1(c2ccc(F)c(-c3cc(Cl)cc(Cl)c3)c2)COCC(N)=N1 (centres unmarked) [Example 31, 5-(3′,5′-Dichloro-6-fluoro-biphenyl-3-yl)-5-methyl-5,6-dihydro-2H-[1,4]oxazin-3-ylamine] | 1000
CC1(c2cccc(C#Cc3ccsc3)c2)COCC(N)=N1 (centres unmarked) [Example 55, 5-Methyl-5-(3-thiophen-3-ylethynyl-phenyl)-5,6-dihydro-2H-[1,4]oxazin-3-ylamine] | 2780

Now from value to molecule:

IC50 [nM] | Compound
1060 | CC1(c2cccc(-c3ccnc(Cl)c3)c2)COCC(N)=N1 (centres unmarked) [Example 19, 5-[3-(2-chloro-pyridin-4-yl)-phenyl]-5-methyl-5,6-dihydro-2H-[1,4]oxazin-3-ylamine formate]
3070 | CC1(c2cccc(-c3cccc(N)c3)c2)COCC(N)=N1 (centres unmarked) [Example 41, 5-(3′-Amino-biphenyl-3-yl)-5-methyl-5,6-dihydro-2H-[1,4]oxazin-3-ylamine]
1060 | CC1(c2cccc(-c3ccccc3Cl)c2)COCC(N)=N1 (centres unmarked) [Example 29, 5-(2′-Chloro-biphenyl-3-yl)-5-methyl-5,6-dihydro-2H-[1,4]oxazin-3-ylamine]
6120 | CC(C)(C)c1ccc(-c2cccc(C3(C)COCC(N)=N3)c2)cc1 (centres unmarked) [Example 18, 5-(4′-tert-butyl-biphenyl-3-yl)-5-methyl-5,6-dihydro-2H-[1,4]oxazin-3-ylamine formate]
390 | CC1(c2cccc(-c3cccc(Cl)c3)c2)COCC(N)=N1 (centres unmarked) [Example 4, 5-(3′-Chloro-biphenyl-3-yl)-5-methyl-5,6-dihydro-2H-[1,4]oxazin-3-ylamine]
1060 | CC1(c2cccc(-c3ccsc3)c2)COCC(N)=N1 (centres unmarked) [Example 3, 5-Methyl-5-(3-thiophen-3-yl-phenyl)-5,6-dihydro-2H-[1,4]oxazin-3-ylamine]
1060 | CC1(c2cccc(-c3ccc4c(c3)OCO4)c2)COCC(N)=N1 (centres unmarked) [Example 22, 5-(3-Benzo[1,3]dioxol-5-yl-phenyl)-5-methyl-5,6-dihydro-2H-[1,4]oxazin-3-ylamine]
6410 | CC1(c2cccc(-c3ccc4[nH]ccc4c3)c2)COCC(N)=N1 (centres unmarked) [Example 25, 5-[3-(1H-Indol-5-yl)-phenyl]-5-methyl-5,6-dihydro-2H-[1,4]oxazin-3-ylamine]
2080 | CC1(c2cccc(-c3cc(F)cc(F)c3)c2)COCC(N)=N1 (centres unmarked) [Example 28, 5-(3′,5′-Difluoro-biphenyl-3-yl)-5-methyl-5,6-dihydro-2H-[1,4]oxazin-3-ylamine]
13000 | Cc1cc(-c2cccc(C3(C)COCC(N)=N3)c2)ccc1Cl (centres unmarked) [Example 26, 5-(4′-Chloro-3′-methyl-biphenyl-3-yl)-5-methyl-5,6-dihydro-2H-[1,4]oxazin-3-ylamine]
1170 | CC1(c2cccc(-c3ccc(F)cc3)c2)COCC(N)=N1 (centres unmarked) [Example 2, 5-(4′-Fluoro-biphenyl-3-yl)-5-methyl-5,6-dihydro-2H-[1,4]oxazin-3-ylamine]
480 | CC1(c2cccc(-c3cccc(OC(F)F)c3)c2)COCC(N)=N1 (centres unmarked) [Example 14, 5-(3′-Difluoromethoxy-biphenyl-3-yl)-5-methyl-5,6-dihydro-2H-[1,4]oxazin-3-ylamine]
12600 | CC1(c2cccc(-c3ccc(Cl)cn3)c2)COCC(N)=N1 (centres unmarked) [Example 33, 5-[3-(5-Chloro-pyridin-2-yl)-phenyl]-5-methyl-5,6-dihydro-2H-[1,4]oxazin-3-ylamine]
650 | CC1(c2cccc(-c3ccc(F)c(Cl)c3)c2)COCC(N)=N1 (centres unmarked) [Example 7, 5-(3′-Chloro-4′-fluoro-biphenyl-3-yl)-5-methyl-5,6-dihydro-2H-[1,4]oxazin-3-ylamine]
280 | CC1(c2cccc(-c3cccc(C#N)c3)c2)COCC(N)=N1 (centres unmarked) [Example 16, 3′-(5-Amino-3-methyl-3,6-dihydro-2H-[1,4]oxazin-3-yl)-biphenyl-3-carbonitrile]
100 | COc1cncc(-c2cccc(C3(C)COCC(N)=N3)c2)c1 (centres unmarked) [Example 1, 5-[3-(5-Methoxy-pyridin-3-yl)-phenyl]-5-methyl-5,6-dihydro-2H-[1,4]oxazin-3-ylamine]
390 | CC1(c2cccc(-c3cncc(Cl)c3)c2)COCC(N)=N1 (centres unmarked) [Example 34, 5-[3-(5-Chloro-pyridin-3-yl)-phenyl]-5-methyl-5,6-dihydro-2H-[1,4]oxazin-3-ylamine]
